Results reported in patent publication US9630958B2, “Triazine compounds” (Sphaera Pharma Pte. Ltd., priority 2012, dated 2017).
pIC50: −log10 of the molar value.

What was measured:
Recombinant mTOR (FRAP1) = target: T1, Recombinant mTOR (FRAP1) (Homo sapiens, UniProt P42345); experiment: mTOR in vitro kinase assay (TR-FRET, phosphorylation of GFP-4E-BP1); assay type: biochemical; conditions: for inhibition at 1 µM: 1 uM compound, read-out: mTOR % Inhib@1 uM; for pIC50: 8 μM ATP, 400 nM GFP-4E-BP1
T1 construct: purchased Invitrogen
Procedure, shortened: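 Recombinant human mTOR with GFP-4E-BP1 substrate at 400 nM and 8 μM ATP, 1 h at room temperature, then quenched with 10 mM EDTA plus 2 nM Tb-anti-p4E-BP1 (pThr46) for 1 h. TR-FRET 520/486 nm ratio fitted against inhibitor concentration by four-parameter sigmoidal regression.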

[1] = target: T2, PI3 Kinase alpha (p110 alpha/p85 alpha) (Homo sapiens, UniProt P42336); experiment: PI3K TR-FRET assay (Transcreener ADP2); assay type: biochemical; conditions: for inhibition at 1 µM: 1 uM compound, read-out: PI3K % Inhib@1 uM; for pIC50: PI3K alpha, 1 μM ATP, 50 μM PIP2
T2 construct: purchased Invitrogen
Procedure, shortened: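 p110α/p85α with diC8 PIP2 (50 μM) and 1 μM ATP in 50 mM HEPES pH 7.4, MgCl2, CHAPS, DTT, EGTA; 1 h at room temperature. ADP detected by Transcreener ADP2 TR-FRET (665/615 nm ratio), converted to product via ADP-ATP standard curve; IC50 from four-parameter fit of % inhibition.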

T2 sequence (P42336 whole entry): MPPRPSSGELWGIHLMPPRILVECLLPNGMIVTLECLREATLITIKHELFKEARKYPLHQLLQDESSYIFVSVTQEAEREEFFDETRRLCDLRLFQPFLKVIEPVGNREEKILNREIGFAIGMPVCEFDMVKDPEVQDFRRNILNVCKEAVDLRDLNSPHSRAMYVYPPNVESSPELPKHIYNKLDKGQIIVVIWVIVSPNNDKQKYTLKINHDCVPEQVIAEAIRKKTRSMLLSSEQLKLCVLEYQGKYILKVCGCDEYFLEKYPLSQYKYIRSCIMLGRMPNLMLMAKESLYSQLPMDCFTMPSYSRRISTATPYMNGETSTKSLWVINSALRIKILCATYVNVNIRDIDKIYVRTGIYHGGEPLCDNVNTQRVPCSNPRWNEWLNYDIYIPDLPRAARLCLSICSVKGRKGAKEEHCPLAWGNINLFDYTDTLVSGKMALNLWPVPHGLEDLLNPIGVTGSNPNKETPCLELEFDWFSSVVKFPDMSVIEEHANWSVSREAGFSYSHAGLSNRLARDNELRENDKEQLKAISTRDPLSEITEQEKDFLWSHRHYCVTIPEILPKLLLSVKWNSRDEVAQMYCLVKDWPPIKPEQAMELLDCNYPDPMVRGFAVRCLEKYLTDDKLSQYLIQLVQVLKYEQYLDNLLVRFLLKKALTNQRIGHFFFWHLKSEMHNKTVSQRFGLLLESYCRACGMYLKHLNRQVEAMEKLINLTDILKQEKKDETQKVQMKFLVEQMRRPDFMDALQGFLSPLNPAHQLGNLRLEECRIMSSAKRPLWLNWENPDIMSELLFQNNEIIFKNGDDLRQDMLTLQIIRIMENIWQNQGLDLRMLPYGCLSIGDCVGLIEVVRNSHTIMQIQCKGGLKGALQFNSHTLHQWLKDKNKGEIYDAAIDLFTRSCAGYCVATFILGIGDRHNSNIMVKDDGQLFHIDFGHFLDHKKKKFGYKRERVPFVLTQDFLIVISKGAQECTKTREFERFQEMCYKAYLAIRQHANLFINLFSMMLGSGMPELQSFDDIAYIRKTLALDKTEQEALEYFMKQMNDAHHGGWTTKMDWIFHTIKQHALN
T2 sequence (P27986 whole entry partner): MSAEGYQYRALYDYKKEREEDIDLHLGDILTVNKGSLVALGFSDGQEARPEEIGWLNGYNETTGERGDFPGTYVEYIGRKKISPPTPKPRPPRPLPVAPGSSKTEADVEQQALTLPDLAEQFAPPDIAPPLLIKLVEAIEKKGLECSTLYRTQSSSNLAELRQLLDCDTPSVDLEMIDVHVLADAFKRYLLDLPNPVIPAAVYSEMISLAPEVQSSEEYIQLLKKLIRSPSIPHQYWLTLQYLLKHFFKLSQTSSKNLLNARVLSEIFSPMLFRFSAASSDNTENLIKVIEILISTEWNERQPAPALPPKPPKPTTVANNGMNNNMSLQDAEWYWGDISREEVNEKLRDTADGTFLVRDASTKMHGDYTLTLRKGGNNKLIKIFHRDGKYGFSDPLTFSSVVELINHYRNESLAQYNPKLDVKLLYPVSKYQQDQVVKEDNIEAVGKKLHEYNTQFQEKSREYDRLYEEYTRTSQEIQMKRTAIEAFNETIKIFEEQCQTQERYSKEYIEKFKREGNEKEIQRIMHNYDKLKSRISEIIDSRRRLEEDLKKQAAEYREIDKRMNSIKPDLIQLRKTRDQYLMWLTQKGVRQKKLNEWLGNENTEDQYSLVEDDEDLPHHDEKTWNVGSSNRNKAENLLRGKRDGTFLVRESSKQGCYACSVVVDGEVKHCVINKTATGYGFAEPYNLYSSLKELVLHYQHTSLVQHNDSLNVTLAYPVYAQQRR
T1 sequence (P42345 1360-2549 limits assumed): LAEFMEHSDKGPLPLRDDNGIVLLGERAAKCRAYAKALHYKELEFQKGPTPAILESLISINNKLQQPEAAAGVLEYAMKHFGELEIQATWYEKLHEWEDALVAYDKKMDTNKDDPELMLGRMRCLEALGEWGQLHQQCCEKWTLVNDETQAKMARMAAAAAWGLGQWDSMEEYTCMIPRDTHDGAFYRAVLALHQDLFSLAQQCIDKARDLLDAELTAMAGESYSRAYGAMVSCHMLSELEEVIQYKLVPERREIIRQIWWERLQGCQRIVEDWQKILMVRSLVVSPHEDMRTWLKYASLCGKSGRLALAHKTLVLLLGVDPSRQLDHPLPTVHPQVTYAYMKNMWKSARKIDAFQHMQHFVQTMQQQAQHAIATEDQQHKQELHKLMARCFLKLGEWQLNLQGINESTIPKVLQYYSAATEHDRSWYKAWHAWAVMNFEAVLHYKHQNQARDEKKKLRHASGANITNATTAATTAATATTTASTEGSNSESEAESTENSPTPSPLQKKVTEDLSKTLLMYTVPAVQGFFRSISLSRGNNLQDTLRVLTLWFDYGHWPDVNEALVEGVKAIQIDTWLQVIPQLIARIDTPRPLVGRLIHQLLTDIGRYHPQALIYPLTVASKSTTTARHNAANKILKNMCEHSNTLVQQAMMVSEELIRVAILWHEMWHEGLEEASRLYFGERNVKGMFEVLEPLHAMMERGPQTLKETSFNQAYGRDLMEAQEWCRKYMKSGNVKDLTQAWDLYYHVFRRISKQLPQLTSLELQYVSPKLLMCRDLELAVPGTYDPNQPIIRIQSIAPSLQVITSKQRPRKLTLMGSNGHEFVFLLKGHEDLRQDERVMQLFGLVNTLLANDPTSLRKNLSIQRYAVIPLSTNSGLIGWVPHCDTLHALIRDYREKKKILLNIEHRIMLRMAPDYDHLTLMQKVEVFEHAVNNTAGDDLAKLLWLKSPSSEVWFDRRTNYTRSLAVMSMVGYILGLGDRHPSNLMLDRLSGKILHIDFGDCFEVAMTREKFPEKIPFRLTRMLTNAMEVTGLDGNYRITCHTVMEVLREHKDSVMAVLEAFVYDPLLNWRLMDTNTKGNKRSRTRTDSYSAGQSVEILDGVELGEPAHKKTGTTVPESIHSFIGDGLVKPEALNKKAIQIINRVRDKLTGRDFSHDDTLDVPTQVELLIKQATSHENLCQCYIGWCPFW

## C[C@H]1COCCN1c1nc(Oc2ccc(C(=O)N(C)C)cc2F)nc(-c2cnc(N)s2)n1 [Compound 10010, (S)-4-(4-(2-aminothiazol-5-yl)-6-(3-methylmorpholino)-1,3,5-triazin-2-yloxy)-3-fluoro-N,N-dimethylbenzamide]
Recombinant mTOR (FRAP1)
  inhibition at 1 µM: > 50%
  pIC50: > 6.00
[1]
  inhibition at 1 µM: > 50%
  pIC50: > 6.00

## CN(C)C(=O)N1CCC(Oc2nc(-c3ccc(N)nc3)nc(N3CCOCC3)n2)CC1 [Compound 10021, 4-(4-(6-aminopyridin-3-yl)-6-morpholino-1,3,5-triazin-2-yloxy)-N,N-dimethylpiperidine-1-carboxamide]
Recombinant mTOR (FRAP1)
  inhibition at 1 µM: > 50%
  pIC50: > 6.00
[1]
  pIC50: > 6.00

## C[C@@H]1OCCN(c2nc(Oc3ccc(C(=O)N(C)C)cc3)nc(-c3cnc(N)s3)n2)[C@H]1C [Compound 10142, 4-(4-(2-aminothiazol-5-yl)-6-((2S,3S)-2,3-dimethylmorpholino)-1,3,5-triazin-2-yloxy)-N,N-dimethylbenzamide]
Recombinant mTOR (FRAP1)
  pIC50: > 6.00
[1]
  pIC50: < 5.00

## CC(C(=O)N(C)C)c1ccc(Oc2nc(-c3cnc(N)s3)nc(N3CCOCC3)n2)cc1 (stereo not shown) [Compound 10115, 2-(4-(4-(2-aminothiazol-5-yl)-6-morpholino-1,3,5-triazin-2-yloxy)phenyl)-N,N-dimethylpropanamide]
Recombinant mTOR (FRAP1)
  inhibition at 1 µM: > 50%
[1]
  pIC50: > 6.00

## C[C@H]1COCCN1c1nc(Oc2ccc(C(=O)N(C)C)cc2F)nc(-c2ccc3[nH]ccc3c2)n1 [Compound 10100, (S)-4-((4-(1H-indol-5-yl)-6-(3-methylmorpholino)1,3,5-triazin-2-yl)oxy)3-fluoro-N,N-dimethylbenzamide]
Recombinant mTOR (FRAP1)
  inhibition at 1 µM: > 50%
  pIC50: > 6.00
[1]
  pIC50: > 6.00

## C[C@@H]1CO[C@@H](C)CN1c1nc(Oc2ccc(C(=O)N(C)C)cc2F)nc(-c2ccc3[nH]ncc3c2)n1 [Compound 10161, 4-(4-(1H-indazol-5-yl)-6-((2S,5R)-2,5-dimethylmorpholino)-1,3,5-triazin-2-yloxy)-3-fluoro-N,N-dimethylbenzamide]
Recombinant mTOR (FRAP1)
  pIC50: > 6.00
[1]
  pIC50: < 5.00

## C[C@@H]1COC[C@H](C)N1c1nc(Oc2ccc(C(=O)N(C)C)cc2)nc(-c2cnc(N)s2)n1 [Compound 10079, 4-((4-(2-Aminothiazol-5-yl)-6-((3S,5R)-3,5-dimethylmorpholino)-1,3,5-triazin-2-yl)oxy)-N,N-dimethybenzamide]
Recombinant mTOR (FRAP1)
  pIC50: > 6.00
[1]
  inhibition at 1 µM: < 50%
  pIC50: < 6.00

## CN(C)C(=O)N1CCC(Oc2nc(-c3cnc(N)s3)nc(N3CCOCC3)n2)CC1 [Compound 10003, 4-(4-(2-aminothiazol-5-yl)-6-morpholino-1,3,5-triazin-2-yloxy)-N,N-dimethylpiperidine-1-carboxamide]
Recombinant mTOR (FRAP1)
  inhibition at 1 µM: > 50%
  pIC50: > 6.00
[1]
  pIC50: > 6.00

## CN(C)C(=O)c1ccc(Oc2nc(-c3cnc(N)s3)nc(N3CCS(=O)(=O)CC3)n2)cc1 [Compound 10123]
Recombinant mTOR (FRAP1)
  inhibition at 1 µM: < 50%
[1]
  inhibition at 1 µM: < 50%

## CN(C)C(=O)c1ccc(Oc2nc(-c3cnc(N)s3)nc(N3CCOCC3)n2)c(F)c1 [Compound 10022, 4-(4-(2-aminothiazol-5-yl)-6-morpholino-1,3,5-triazin-2-yloxy)-3-fluoro-N,N-dimethylbenzamide]
Recombinant mTOR (FRAP1)
  inhibition at 1 µM: > 50%
  pIC50: > 6.00
[1]
  pIC50: > 6.00

## CN(C)C(=O)c1ccc(Oc2nc(-c3ccc4[nH]ncc4c3)nc(N3C4CCC3COC4)n2)c(F)c1 [Compound 10136, 4-(4-(3-oxa-8-aza-bicyclo[3.2.1]octan-8-yl)-6-(1H-indazol-5-yl)-1,3,5-triazin-2-yloxy)-3-fluoro-N,N-dimethylbenzamide]
Recombinant mTOR (FRAP1)
  inhibition at 1 µM: > 50%
  pIC50: > 6.00
[1]
  inhibition at 1 µM: < 50%
  pIC50: < 5.00

## CNc1ncc(-c2nc(Oc3ccc(C(=O)N(C)C)cc3)nc(N3CCOCC3)n2)s1 [Compound 10007, N,N-dimethyl-4-(4-(2-(methylamino)thiazol-5-yl)-6-morpholino-1,3,5-triazin-2-yloxy)benzamide]
Recombinant mTOR (FRAP1)
  inhibition at 1 µM: > 50%
  pIC50: > 6.00
[1]
  pIC50: < 6.00

## CN(C)C(=O)c1ccc(Oc2nc(-c3cnc(N)s3)nc(N3CCOc4ccccc43)n2)cc1 [Compound 10029, 4-(4-(2-aminothiazol-5-yl)-6-(2H-benzo[b][1,4]oxazin-4(3H)-yl)-1,3,5-triazin-2-yloxy)-N,N-dimethylbenzamide]
Recombinant mTOR (FRAP1)
  inhibition at 1 µM: > 50%
  pIC50: > 6.00
[1]
  inhibition at 1 µM: < 50%
  pIC50: < 6.00

## C[C@@H]1OCCN(c2nc(Oc3ccc(C(=O)N(C)C)cc3F)nc(-c3cnc(N)s3)n2)[C@H]1C [Compound 10053, 4-((4-(2-Aminothiazol-5-yl)-6-((2S,3S)-2,3-dimethylmorpholino)-1,3,5-triazin-2-yl)oxy)-3-fluoro-N,N-dimethylbenzamide]
Recombinant mTOR (FRAP1)
  pIC50: > 6.00
[1]
  pIC50: < 6.00

## Nc1ccc(-c2nc(CO)nc(N3CCOCC3)n2)cn1 [Compound 10176, (4-(6-aminopyridin-3-yl)-6-morpholino-1,3,5-triazin-2-yl)methanol]
Recombinant mTOR (FRAP1)
  inhibition at 1 µM: < 50%
[1]
  pIC50: > 6.00

## Cc1nc(N)sc1-c1nc(Oc2ccc(C(=O)N(C)C)cc2)nc(N2CCOCC2)n1 [Compound 10199, 4-((4-(2-amino-4-methylthiazol-5-yl)-6-morpholino-1,3,5-triazin-2-yl)oxy)-N,N-dimethylbenzamide]
Recombinant mTOR (FRAP1)
  inhibition at 1 µM: < 50%
[1]
  pIC50: > 6.00

## CN(C)C(=O)c1ccc(Oc2nc(-c3cccc4[nH]ncc34)nc(N3[C@@H]4CC[C@H]3COC4)n2)cc1 [Compound 10174, 4-((4-((1R,5S)-3-oxa-8-azabicyclo[3.2.1]octan-8-yl)-6-(1H-indazol-4-yl)-1,3,5-triazin-2-yl)oxy)-N,N-dimethylbenzamide]
Recombinant mTOR (FRAP1)
  inhibition at 1 µM: < 50%
[1]
  pIC50: < 6.00

## CN(C)C(=O)c1ccc(Oc2nc(-c3cnc(N)s3)nc(N3CC4CCC(C3)O4)n2)c(F)c1 [Compound 10154, 4-(4-(8-oxa-3-aza-bicyclo[3.2.1]octan-3-yl)-6-(2-aminothiazol-5-yl)-1,3,5-triazin-2-yloxy)-3-fluoro-N,N-dimethylbenzamide]
Recombinant mTOR (FRAP1)
  pIC50: > 6.00
[1]
  inhibition at 1 µM: < 50%
  pIC50: < 6.00

## CN(C)C(=O)c1ccc(Oc2nc(-c3cnc(N)s3)nc(N3CCNC(=O)CC3)n2)cc1 [Compound 10071, 4-((4-(2-Aminothiazol-5-yl)-6-(5-oxo-1,4-diazepan-1-yl)-1,3,5-triazin-2-yl)oxy)-N,N-dimethylbenzamide]
Recombinant mTOR (FRAP1)
  inhibition at 1 µM: < 50%
[1]
  inhibition at 1 µM: < 50%

## C[C@H]1COC[C@H](C)N1c1nc(Oc2ccc(C(=O)N(C)C)cc2)nc(-c2cnc(N)s2)n1 [Compound 10078, 4-((4-(2-Aminothiazol-5-yl)-6-((3S,5S)-3,5-dimethylmorpholino)-1,3,5-triazin-2-yl)oxy)-N,N-dimethybenzamide]
Recombinant mTOR (FRAP1)
  inhibition at 1 µM: > 50%
  pIC50: > 6.00
[1]
  inhibition at 1 µM: > 50%
  pIC50: > 6.00

## CN(C)C(=O)c1ccc(Oc2nc(-c3cnc(N)s3)nc(N3CCNC(=O)C3)n2)cc1 [Compound 10072, 4-((4-(2-Aminothiazol-5-yl)-6-(3-oxopiperazin-1-yl)-1,3,5-triazin-2-yl)oxy)-N,N-dimethylbenzamide]
Recombinant mTOR (FRAP1)
  inhibition at 1 µM: < 50%
[1]
  inhibition at 1 µM: < 50%

## C[C@H]1COCCN1c1nc(OC2CCC(C(=O)N(C)C)CC2)nc(-c2cccc(CO)c2)n1 (stereo partly drawn) [Compound 10147, (1R,4s)-4-(4-(3-(hydroxymethyl)phenyl)-6-((S)-3-methylmorpholino)-1,3,5-triazin-2-yloxy)-N,N-dimethylcyclohexanecarboxamide]
Recombinant mTOR (FRAP1)
  pIC50: < 6.00
[1]
  inhibition at 1 µM: > 50%

## C[C@@H]1COCCN1c1nc(Oc2ccc(C(=O)N(C)C)cc2F)nc(-c2cnc(N)s2)n1 [Compound 10156, 4-(4-(2-aminothiazol-5-yl)-6-((R)-3-methylmorpholino)-1,3,5-triazin-2-yloxy)-3-fluoro-N,N-dimethylbenzamide]
Recombinant mTOR (FRAP1)
  pIC50: > 6.00
[1]
  inhibition at 1 µM: < 50%
  pIC50: 5.52

## C[C@H]1COCCN1c1nc(OC2CCC(C(=O)N(C)C)CC2)nc(-c2ccc3[nH]ccc3c2)n1 (stereo partly drawn) [Compound 10141, (1R,4s)-4-(4-(1H-indol-5-yl)-6-((S)-3-methylmorpholino)-1,3,5-triazin-2-yloxy)-N,N-dimethylcyclohexanecarboxamide]
Recombinant mTOR (FRAP1)
  pIC50: > 6.00
[1]
  inhibition at 1 µM: < 50%
  pIC50: < 5.00

## Nc1ccc(-c2nc(Oc3ccc4c(c3)CCC(=O)N4)nc(N3CCOCC3)n2)cn1 [Compound 10182, 6-((4-(6-aminopyridin-3-yl)-6-morpholino-1,3,5-triazin-2-yl)oxy)-3,4-dihydroquinolin-2(1H)-one]
Recombinant mTOR (FRAP1)
  inhibition at 1 µM: > 50%
  pIC50: < 6.00
[1]
  pIC50: > 6.00

## C[C@H]1OCCN(c2nc(Oc3ccc(C(=O)N(C)C)cc3F)nc(-c3cnc(N)s3)n2)[C@H]1C [Compound 10052, 4-((4-(2-Aminothiazol-5-yl)-6-((2R,3S)-2,3-dimethylmorpholino)-1,3,5-triazin-2-yl)oxy)-3-fluoro-N,N-dimethylbenzamide]
Recombinant mTOR (FRAP1)
  pIC50: > 6.00
[1]
  inhibition at 1 µM: > 50%
  pIC50: > 6.00

## C[C@@H]1CN(c2nc(Oc3ccc(C(=O)N(C)C)cc3F)nc(-c3ccc4[nH]ncc4c3)n2)[C@H](C)CO1 [Compound 10162, 4-(4-(1H-indazol-5-yl)-6-((2R,5R)-2,5-dimethylmorpholino)-1,3,5-triazin-2-yloxy)-3-fluoro-N,N-dimethylbenzamide]
Recombinant mTOR (FRAP1)
  pIC50: < 6.00
[1]
  pIC50: < 5.00
